Laboratory results from the supplement of paper PMC8671470.

Key:
Conditions in all cases: 72 h
SHI-1 [1] = test: cell viability (% survival relative to DMSO control, bortezomib = 0%); higher = less cytotoxic
How it was run: (§1)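 Fifteen myeloid leukaemia cell lines (10 AML, 5 CML) were seeded at a density titrated to the linear growth range into 384-well plates pre-printed with compounds at 1, 10, 100, 1000 or 10000 nM in duplicate. Plates were incubated for 72 h at 37 °C with 5% CO2. Viability was then read by CellTiter-Glo luminescence. Each value is percent survival averaged over the duplicates, with vehicle set to 100% and a 10 µM positive control to 0%.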

HEL [2] = test: as above
How it was run: as §1

KG-1 [3] = test: as above
How it was run: as §1

NOMO-1 [4] = test: as above
How it was run: as §1

KU-812 [5] = test: as above
How it was run: as §1

K-562 [6] = test: as above
How it was run: as §1

Mono-Mac-6 [7] = test: as above
How it was run: as §1

THP-1 [8] = test: as above
How it was run: as §1

KCL-22 [9] = test: as above
How it was run: as §1

ML-2 [10] = test: as above
How it was run: as §1

HL-60 [11] = test: as above
How it was run: as §1

BV-173 [12] = test: as above
How it was run: as §1

LAMA-84 [13] = test: as above
How it was run: as §1

MOLM-13 [14] = test: as above
How it was run: as §1

MV4-11 [15] = test: as above
How it was run: as §1

SHI-1 [16] = test system: SHI-1
How it was run: (§2)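 Seeded in RPMI 1640 at densities within the linear growth range, fifteen myeloid leukaemia cell lines were dispensed into 384-well plates with acoustically pre-printed compounds spanning five tenfold doses from 1 to 10,000 nM, in duplicate. The plates were kept for 72 h at 37 °C in 5% CO2 before luminescent ATP viability was measured and normalised to vehicle and to a positive control at 10 µM. Curves were fitted with a four-parameter log-logistic model. The IC50 was taken from those curves.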

HEL [17] = test system: HEL
How it was run: as §2

KG-1 [18] = test system: KG-1
How it was run: as §2

NOMO-1 [19] = test system: NOMO-1
How it was run: as §2

KU-812 [20] = test system: KU-812
How it was run: as §2

K-562 [21] = test system: K-562
How it was run: as §2

Mono-Mac-6 [22] = test system: Mono-Mac-6
How it was run: as §2

THP-1 [23] = test system: THP-1
How it was run: as §2

KCL-22 [24] = test system: KCL-22
How it was run: as §2

ML-2 [25] = test system: ML-2
How it was run: as §2

HL-60 [26] = test system: HL-60
How it was run: as §2

BV-173 [27] = test system: BV-173
How it was run: as §2

LAMA-84 [28] = test system: LAMA-84
How it was run: as §2

MOLM-13 [29] = test system: MOLM-13
How it was run: as §2

MV4-11 [30] = test system: MV4-11
How it was run: as §2

Cc1cc(C(=O)NNCc2ccccc2)no1 [Isocarboxazid]
cell viability (SHI-1 [1]; 1 nM): 101% | cell viability (SHI-1 [1]; 10 nM): 99.9% | cell viability (SHI-1 [1]; 100 nM): 98.4% | cell viability (SHI-1 [1]; 1000 nM): 99.1% | cell viability (SHI-1 [1]; 10000 nM): 95.2% | cell viability (HEL [2]; 1 nM): 112% | cell viability (HEL [2]; 10 nM): 87.8% | cell viability (HEL [2]; 100 nM): 111% | cell viability (HEL [2]; 1000 nM): 92.6% | cell viability (HEL [2]; 10000 nM): 103% | cell viability (KG-1 [3]; 1 nM): 96.5% | cell viability (KG-1 [3]; 10 nM): 109% | cell viability (KG-1 [3]; 100 nM): 98.5% | cell viability (KG-1 [3]; 1000 nM): 108% | cell viability (KG-1 [3]; 10000 nM): 91.1% | cell viability (NOMO-1 [4]; 1 nM): 105% | cell viability (NOMO-1 [4]; 10 nM): 103% | cell viability (NOMO-1 [4]; 100 nM): 109% | cell viability (NOMO-1 [4]; 1000 nM): 112% | cell viability (NOMO-1 [4]; 10000 nM): 92% | cell viability (KU-812 [5]; 1 nM): 96.2% | cell viability (KU-812 [5]; 10 nM): 99.6% | cell viability (KU-812 [5]; 100 nM): 93.8% | cell viability (KU-812 [5]; 1000 nM): 93.9% | cell viability (KU-812 [5]; 10000 nM): 100% | cell viability (K-562 [6]; 1 nM): 116% | cell viability (K-562 [6]; 10 nM): 91.5% | cell viability (K-562 [6]; 100 nM): 88.5% | cell viability (K-562 [6]; 1000 nM): 99.6% | cell viability (K-562 [6]; 10000 nM): 107% | cell viability (Mono-Mac-6 [7]; 1 nM): 94.1% | cell viability (Mono-Mac-6 [7]; 10 nM): 102% | cell viability (Mono-Mac-6 [7]; 100 nM): 104% | cell viability (Mono-Mac-6 [7]; 1000 nM): 107% | cell viability (Mono-Mac-6 [7]; 10000 nM): 80.8% | cell viability (THP-1 [8]; 1 nM): 97.8% | cell viability (THP-1 [8]; 10 nM): 102% | cell viability (THP-1 [8]; 100 nM): 110% | cell viability (THP-1 [8]; 1000 nM): 97.4% | cell viability (THP-1 [8]; 10000 nM): 86.7% | cell viability (KCL-22 [9]; 1 nM): 105% | cell viability (KCL-22 [9]; 10 nM): 91.3% | cell viability (KCL-22 [9]; 100 nM): 94.3% | cell viability (KCL-22 [9]; 1000 nM): 98.3% | cell viability (KCL-22 [9]; 10000 nM): 65.6% | cell viability (ML-2 [10]; 1 nM): 95% | cell viability (ML-2 [10]; 10 nM): 101% | cell viability (ML-2 [10]; 100 nM): 101% | cell viability (ML-2 [10]; 1000 nM): 90.4% | cell viability (ML-2 [10]; 10000 nM): 85.4% | cell viability (HL-60 [11]; 1 nM): 107% | cell viability (HL-60 [11]; 10 nM): 90.1% | cell viability (HL-60 [11]; 100 nM): 106% | cell viability (HL-60 [11]; 1000 nM): 122% | cell viability (HL-60 [11]; 10000 nM): 102% | cell viability (BV-173 [12]; 1 nM): 99.1% | cell viability (BV-173 [12]; 10 nM): 101% | cell viability (BV-173 [12]; 100 nM): 100% | cell viability (BV-173 [12]; 1000 nM): 117% | cell viability (BV-173 [12]; 10000 nM): 80.7% | cell viability (LAMA-84 [13]; 1 nM): 98.9% | cell viability (LAMA-84 [13]; 10 nM): 97.9% | cell viability (LAMA-84 [13]; 100 nM): 99.7% | cell viability (LAMA-84 [13]; 1000 nM): 95.5% | cell viability (LAMA-84 [13]; 10000 nM): 95.8% | cell viability (MOLM-13 [14]; 1 nM): 104% | cell viability (MOLM-13 [14]; 10 nM): 96.3% | cell viability (MOLM-13 [14]; 100 nM): 103% | cell viability (MOLM-13 [14]; 1000 nM): 106% | cell viability (MOLM-13 [14]; 10000 nM): 96.6% | cell viability (MV4-11 [15]; 1 nM): 107% | cell viability (MV4-11 [15]; 10 nM): 95% | cell viability (MV4-11 [15]; 100 nM): 97.5% | cell viability (MV4-11 [15]; 1000 nM): 81.4% | cell viability (MV4-11 [15]; 10000 nM): 80.4% | IC50 (cell viability) (SHI-1 [16]): > 10 µM | IC50 (cell viability) (HEL [17]): > 10 µM | IC50 (cell viability) (KG-1 [18]): > 10 µM | IC50 (cell viability) (NOMO-1 [19]): > 10 µM | IC50 (cell viability) (KU-812 [20]): > 10 µM | IC50 (cell viability) (K-562 [21]): > 10 µM | IC50 (cell viability) (Mono-Mac-6 [22]): > 10 µM | IC50 (cell viability) (THP-1 [23]): > 10 µM | IC50 (cell viability) (KCL-22 [24]): > 10 µM | IC50 (cell viability) (ML-2 [25]): > 10 µM | IC50 (cell viability) (HL-60 [26]): > 10 µM | IC50 (cell viability) (BV-173 [27]): > 10 µM | IC50 (cell viability) (LAMA-84 [28]): > 10 µM | IC50 (cell viability) (MOLM-13 [29]): > 10 µM | IC50 (cell viability) (MV4-11 [30]): > 10 µM
